Data taken from patent publication US9517214B2, “Fat-based food products” (IP Science Limited, priority 2011, dated 2016).

Key:
[1] = tested on: clinically healthy volunteers with hypercholesterolaemia; test: Serum lipids (TC, TG, HDL, LDL) in trial of lycopene, butter and L-Butter; format: in vivo, human; settings: after one week of administration of 7 mg of lycopene
Method: (§1) Clinically Healthy Volunteers with Hypercholesterolaemia
(§2) Commercially available butter (President, Lactalis) was melted at 40° C. The melted butter was blended with tomato oleoresin, containing 15% of lycopene (Lyc-O-Mato), in the ratio of […] of oleoresin to 30 g of the butter in a thermo-controlled mixer. The mixture was blended for 10 minutes and cooled down to the room temperature. The butter was then divided into daily 30 g portions. Butter was stored at 4° C. until use. Freshly made batches of the L-Butter were made weekly.
(§3) Each portion of 30 g butter contained 47.1 mg of tomato oleoresin or about 7 mg of lycopene.
(§4) The melting and mixing procedures were performed as described above using the same commercially available butter, but instead of tomato oleoresin, sunflower oil (Flora™) was used.
(§5) 47.1 mg of tomato oleoresin was pre-dissolved in ethanol and mixed with Whey Protein as described in Richelle et al (2002) J. Nutr 132 404-408, WO01/091588 and US2002/01072992. Then the mixture was placed into gelatine capsules.
(§6) 18 clinically healthy volunteers, 9 males and 9 females, age 45-69, were recruited for this study.
(§7) • elevated total serum cholesterol above 200 mg/dL and/or triglycerides above 150 mg/dL, • all patients were naive for any lipid-lowering medications, • willing participate in the study. […]
(§8) All blood samples were coded. Their lab analysis and reading of the results were blinded. […]

[2] = tested on: clinically healthy volunteers with hypercholesterolaemia; test: Antibody inflammatory marker Px-IgG in the same trial; format: in vivo, human; settings: 7 mg lycopene daily, capsules; Baseline; individual volunteers
Method: as §1, §2, §3, §4, §5, §6, §7, §8

[3] = daily consumption of 6-10 mg lycopene; cited from earlier work

For `CC(C)=CCC/C(C)=C/C=C/C(C)=C/C=C/C(C)=C/C=C/C=C(C)/C=C/C=C(C)/C=C/C=C(\C)CCC=C(C)C` [Lycopene], the “changes in levels of elevated cholesterol, triglycerides and markers of oxidative damage or inflammation” value [1] is listed as “not any changes”, the Px-IgG [2] is listed as 0.765 U/ml and the “effect on cholesterol or other blood lipids” value [3] is listed as “no effect”.
